# Test results published in patent publication US20230322846A9, “NEUROACTIVE STEROIDS AND THEIR METHODS OF USE” (SAGE THERAPEUTICS, INC., priority 2018, published 2023).
# Biological target: [35S]-TBPS binding, rat brain cortical membranes
# Assay: Steroid inhibition of [35S]-TBPS binding
# Conditions: 3 nM [35S]-TBPS, in the presence of 5 mM GABA
# In short: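 Rat cortical P2 membranes incubated 90 min at room temperature with 3 nM [35S]-TBPS, […] and test compound (0.5% DMSO final) in NaCl/Na–K phosphate pH 7.4; nonspecific binding with […]. Filter-bound radioactivity counted; IC50 and Imax from nonlinear fits, mean ± SEM.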
row,SMILES,IC50
1,"CCOC[C@@]1(O)CC[C@H]2[C@H](CC[C@@H]3[C@@H]2CC[C@]2(C)[C@@H]([C@@H](C)n4ncc(C#N)c4N)CC[C@@H]32)C1 [Example 160, 5-amino-1-((R)-1-((3R,5R,8R,9R,10S,13S,14S,17S)-3-(ethoxymethyl)-3-hydroxy-13-methylhexadecahydro-1H-cyclopenta[a]phenanthren-17-yl)ethyl)-1H-pyrazole-4-carbonitrile]",1000 to 10000 nM
2,"CCOC[C@@]1(O)CC[C@H]2[C@H](CC[C@@H]3[C@@H]2CC[C@]2(C)[C@@H]([C@H](C)n4ncc(C#N)c4N)CC[C@@H]32)C1 [Example 161, 5-amino-1-((S)-1-((3R,5R,8R,9R,10S,13S,14S,17S)-3-(ethoxymethyl)-3-hydroxy-13-methylhexadecahydro-1H-cyclopenta[a]phenanthren-17-yl)ethyl)-1H-pyrazole-4-carbonitrile]",1000 to 10000 nM
3,"CCOC[C@@]1(O)CC[C@H]2[C@H](CC[C@@H]3[C@@H]2CC[C@]2(C)[C@@H]([C@@H](C)n4cc(C#N)cn4)CC[C@@H]32)C1 [Example 162, 1-((R)-1-((3R,5R,8R,9R,10S,13S,14S,17S)-3-(ethoxymethyl)-3-hydroxy-13-methylhexadecahydro-1H-cyclopenta[a]phenanthren-17-yl)ethyl)-1H-pyrazole-4-carbonitrile]",100 to 1000 nM
4,"CCOC[C@@]1(O)CC[C@H]2[C@H](CC[C@@H]3[C@@H]2CC[C@]2(C)[C@@H]([C@H](C)n4cc(C#N)cn4)CC[C@@H]32)C1 [Example 163, 1-((S)-1-((3R,5R,8R,9R,10S,13S,14S,17S)-3-(ethoxymethyl)-3-hydroxy-13-methylhexadecahydro-1H-cyclopenta[a]phenanthren-17-yl)ethyl)-1H-pyrazole-4-carbonitrile]",1000 to 10000 nM
5,"C[C@@H]([C@H]1CC[C@H]2[C@@H]3CC[C@@H]4C[C@](C)(O)CC[C@@H]4[C@H]3CC[C@]12C)n1nccn1 [Example 164, (3R,5R,8R,9R,10S,13S,14S,17S)-17-((S)-1-(2H-1,2,3-triazol-2-yl)ethyl)-3,13-dimethylhexadecahydro-1H-cyclopenta[a]phenanthren-3-ol]",1000 to 10000 nM
6,C[C@H](Nc1cccc(C#N)c1)[C@H]1CC[C@H]2[C@@H]3CC[C@@H]4C[C@](C)(O)CC[C@@H]4[C@H]3CC[C@]12C [Example 201],100 to 1000 nM
7,C[C@@H](Nc1cccc(C#N)c1)[C@H]1CC[C@H]2[C@@H]3CC[C@@H]4C[C@](C)(O)CC[C@@H]4[C@H]3CC[C@]12C [Example 202],< 100 nM
8,C[C@@H](Nc1cccnc1)[C@H]1CC[C@H]2[C@@H]3CC[C@@H]4C[C@](C)(O)CC[C@@H]4[C@H]3CC[C@]12C [Example 203],< 100 nM
9,C[C@H](Nc1cccnc1)[C@H]1CC[C@H]2[C@@H]3CC[C@@H]4C[C@](C)(O)CC[C@@H]4[C@H]3CC[C@]12C [Example 204],100 to 1000 nM
10,C[C@H](Nc1ccc(C#N)cc1)[C@H]1CC[C@H]2[C@@H]3CC[C@@H]4C[C@](C)(O)CC[C@@H]4[C@H]3CC[C@]12C [Example 205],1000 to 10000 nM
11,CCOC[C@@]1(O)CC[C@H]2[C@H](CC[C@@H]3[C@@H]2CC[C@]2(C)[C@@H]([C@@H](C)N[C@H](C)c4ccccc4)CC[C@@H]32)C1 [Example 206],100 to 1000 nM
12,CCOC[C@@]1(O)CC[C@@]2(C)[C@H](CC[C@@H]3[C@@H]2CC[C@]2(C)[C@@H]([C@@H](C)N[C@H](C)c4ccccc4)CC[C@@H]32)C1 [Example 207],1000 to 10000 nM
13,C[C@@H](N[C@H](C)[C@H]1CC[C@H]2[C@@H]3CC[C@@H]4C[C@](C)(O)CC[C@@H]4[C@H]3CC[C@]12C)c1ccccc1 [Example 208],100 to 1000 nM
14,C[C@H](N[C@H](C)[C@H]1CC[C@H]2[C@@H]3CC[C@@H]4C[C@](C)(O)CC[C@@H]4[C@H]3CC[C@]12C)c1ccccc1 [Example 209],100 to 1000 nM
15,C[C@H](N[C@@H](C)[C@H]1CC[C@H]2[C@@H]3CC[C@@H]4C[C@](C)(O)CC[C@@H]4[C@H]3CC[C@]12C)c1ccccc1 [Example 210],1000 to 10000 nM
16,CCOC[C@@]1(O)CC[C@@]2(C)[C@H](CC[C@@H]3[C@@H]2CC[C@]2(C)[C@@H]([C@@H](C)N[C@@H](C)c4ccccc4)CC[C@@H]32)C1 [Example 211],100 to 1000 nM
17,CCOC[C@@]1(O)CC[C@@]2(C)[C@H](CC[C@@H]3[C@@H]2CC[C@]2(C)[C@@H]([C@H](C)N[C@@H](C)c4ccccc4)CC[C@@H]32)C1 [Example 212],1000 to 10000 nM
18,"CC[C@H](NCc1ccccc1)[C@H]1CC[C@H]2[C@@H]3CC[C@@H]4C[C@@](O)(COC)CC[C@@H]4[C@H]3CC[C@]12C [Example 213, (3R,5R,8R,9R,10S,13S,14S,17S)-17-((S)-1-(benzylamino)propyl)-3-(methoxymethyl)-13-methylhexadecahydro-1H-cyclopenta[a]phenanthren-3-ol]",1000 to 10000 nM
19,"CC[C@@H](NCc1ccccc1)[C@H]1CC[C@H]2[C@@H]3CC[C@@H]4C[C@@](O)(COC)CC[C@@H]4[C@H]3CC[C@]12C [Example 214, (3R,5R,8R,9R,10S,13S,14S,17S)-17-((R)-1-(benzylamino)propyl)-3-(methoxymethyl)-13-methylhexadecahydro-1H-cyclopenta[a]phenanthren-3-ol]",1000 to 10000 nM
20,Cc1cc(C#N)ccc1N[C@H](C)[C@H]1CC[C@H]2[C@@H]3CC[C@@H]4C[C@](C)(O)CC[C@@H]4[C@H]3CC[C@]12C [Example 250],< 100 nM
21,Cc1cc(C#N)ccc1N[C@@H](C)[C@H]1CC[C@H]2[C@@H]3CC[C@@H]4C[C@](C)(O)CC[C@@H]4[C@H]3CC[C@]12C [Example 251],100 to 1000 nM
22,COC[C@@]1(O)CC[C@H]2[C@H](CC[C@@H]3[C@@H]2CC[C@]2(C)[C@@H]([C@@H](C)Nc4ccc(C#N)cc4C)CC[C@@H]32)C1 [Example 252],< 100 nM
23,COC[C@@]1(O)CC[C@H]2[C@H](CC[C@@H]3[C@@H]2CC[C@]2(C)[C@@H]([C@H](C)Nc4ccc(C#N)cc4C)CC[C@@H]32)C1 [Example 253],1000 to 10000 nM
24,COC[C@@]1(O)CC[C@H]2[C@H](CC[C@@H]3[C@@H]2CC[C@]2(C)[C@@H]([C@@H](C)Nc4cccc(C#N)c4)CC[C@@H]32)C1 [Example 254],< 100 nM
25,COC[C@@]1(O)CC[C@H]2[C@H](CC[C@@H]3[C@@H]2CC[C@]2(C)[C@@H]([C@H](C)Nc4cccc(C#N)c4)CC[C@@H]32)C1 [Example 255],1000 to 10000 nM
26,COC[C@@]1(O)CC[C@H]2[C@H](CC[C@@H]3[C@@H]2CC[C@]2(C)[C@@H]([C@@H](C)Nc4ccc(C#N)cc4)CC[C@@H]32)C1 [Example 256],< 100 nM
27,COC[C@@]1(O)CC[C@H]2[C@H](CC[C@@H]3[C@@H]2CC[C@]2(C)[C@@H]([C@H](C)Nc4ccc(C#N)cc4)CC[C@@H]32)C1 [Example 257],100 to 1000 nM
